In patent US20050220834A1 (priority 2004, published 2005):

System: bipolaris sorokininan
Test: Seed treatment: disease prevention and yield keeping on wheat
Format: in vivo
Settings: treated seeds
Method: Seeds treaed with FA whose weight amount to 0.2% seed by weight have disease prevention effect for bipolaris sorokininan and yield keeping effect. After the seeds were treated, the wheat developed well and occurrence of powdery mildew was less compared to blank. Yield keeping effect of mixture of FAn and triazolone was improved from 7.79% of single use of triazolone to 10.67%.

CC(C)(C)C(=O)C(Oc1ccc(Cl)cc1)n1cncn1 (stereo not shown) [triazolone]
yield keeping effect (%): 7.79%
